{"source": "patent US20230000863A1", "about": "“COMPOSITION CONTAINING AROMATIC HETEROCYCLIC COMPOUND IN AMORPHOUS FORM, AND PREPARATION METHOD THEREFOR AND USE THEREOF” (SHENZHEN CHIPSCREEN BIOSCIENCES CO., LTD., priority 2019, published 2023)", "format_in_all_cases": "in vivo", "key": {"[1]": {"test": "Pharmacokinetic test of pharmaceutical preparations in rats", "details": "both sexes, rat, po, fasted, gavage, 20 mg/kg of compound of Formula (1), LC-MS/MS", "from_the_text": "Thirty healthy rats were selected and randomly divided into 5 groups, 6 rats (3 females, 3 males) per group, which were respectively the groups of the compound of Formula (1), the capsules of Formulation Example 1, the granules of Formulation Example 4, the tablets of Formulation Example 7, and the soft capsules of Formulation Example 10. During the experiment, the rats were fasted overnight before administration, and blood was collected from the orbit before administration, and the plasma was separated, which was taken as the blood concentration sample at 0 h. The gavage solutions were prepared by dispersing with purified water, the concentration of the gavage solutions was 2 mg/ml, and each rat was administered with the compound of Formula (1) at a dose of 20 mg/kg respectively. After administration, blood samples were collected at 15 min, 0.5 h, 1 h, 2 h, 4 h, 6 h, and 8 h, and each sample was collected about 0.5 ml, anticoagulated with heparin sodium, placed on ice after collection, and centrifuged within 1 hour to separate plasma, which was stored at −80° C. for later test. The drug concentration in plasma was measured by LC-MS/MS."}, "[2]": {"test": "Pharmacokinetic test of compositions containing the compound of Formula (1) in rats", "details": "rat, po, fasted, gavage, 20 mg/kg of compound of Formula (1), LC-MS/MS", "experimental": "Twenty-four healthy rats were selected and randomly divided into 4 groups, 6 rats per group, which were respectively compound of Formula (1), Example 3, Example 4 and Example 7. During the experiment, the rats were fasted overnight before administration, and blood was collected from the orbit before administration, and the plasma was separated, which was taken as the blood concentration sample at 0 h. The gavage solutions were prepared by dispersion with purified water, the concentration of the gavage solutions was 2 mg/ml, and each rat was administered with the compound of Formula (1) at a dose of 20 mg/kg, respectively. After administration, blood samples were collected at 15 min, 0.5 h, 1 h, 2 h, 4 h, 6 h, and 8 h, and each sample was collected about 0.5 ml, anticoagulated with heparin sodium, placed on ice after collection, and centrifuged within 1 hour to separate plasma, which was stored at −80° C. for later test. The drug concentration in plasma was measured by LC-MS/MS."}, "[3]": {"test": "Pharmacokinetic test of pharmaceutical preparations in beagle dogs", "details": "po, fasted, gavage, 100 mg of compound of Formula (1) per dog, LC-MS/MS", "experimental": "Nine healthy beagle dogs were selected, which were divided into the group of the compound of Formula (1), capsules of Formulation Example 1, and capsules of Formulation Example 11. During the experiment, the beagle dogs were fasted overnight before administration, and venous blood was collected before administration, and plasma was separated as the blood drug concentration sample at […]. Each beagle dog was administrated by gavage at a dose of 100 mg of the compound of Formula (1), respectively. After administration, blood samples were collected at 15 min, 0.5 h, 1 h, 2 h, 4 h, 8 h, and 24 h respectively. Each sample was collected about 0.5 ml, anticoagulated with heparin sodium, placed on ice after collection, and centrifuged within 1 hour to separate plasma, the drug concentration in plasma was measured by LC-MS/MS."}}, "data": [{"smiles": "C=CC(=O)N(C)c1cc(Nc2ncc(Cl)c(NCCCNC(=O)c3ccc(C#N)cc3)n2)ccc1F", "note": "[Compound of Formula (1)]", "values": [{"measurement": "AUC(0-t)", "setting": "[1]; plasma 0-8 h", "value": 235, "unit": "ng·h/mL"}, {"measurement": "Cmax", "setting": "[1]; plasma", "value": 243, "unit": "ng/mL"}, {"measurement": "AUC(0-t)", "setting": "[2]; plasma 0-8 h", "value": 235, "unit": "ng·h/mL"}, {"measurement": "Cmax", "setting": "[2]; plasma", "value": 243, "unit": "ng/mL"}, {"measurement": "AUC(0-t)", "setting": "[3]; plasma 0-24 h", "value": 30, "unit": "ng·h/mL"}, {"measurement": "Cmax", "setting": "[3]; plasma", "value": 22, "unit": "ng/mL"}, {"measurement": "half-life", "setting": "[3]; plasma", "value": 24, "unit": "min"}]}]}
